Target: T1, hDGAT1 (Homo sapiens, UniProt O75907)
T1 sequence (O75907 1-488): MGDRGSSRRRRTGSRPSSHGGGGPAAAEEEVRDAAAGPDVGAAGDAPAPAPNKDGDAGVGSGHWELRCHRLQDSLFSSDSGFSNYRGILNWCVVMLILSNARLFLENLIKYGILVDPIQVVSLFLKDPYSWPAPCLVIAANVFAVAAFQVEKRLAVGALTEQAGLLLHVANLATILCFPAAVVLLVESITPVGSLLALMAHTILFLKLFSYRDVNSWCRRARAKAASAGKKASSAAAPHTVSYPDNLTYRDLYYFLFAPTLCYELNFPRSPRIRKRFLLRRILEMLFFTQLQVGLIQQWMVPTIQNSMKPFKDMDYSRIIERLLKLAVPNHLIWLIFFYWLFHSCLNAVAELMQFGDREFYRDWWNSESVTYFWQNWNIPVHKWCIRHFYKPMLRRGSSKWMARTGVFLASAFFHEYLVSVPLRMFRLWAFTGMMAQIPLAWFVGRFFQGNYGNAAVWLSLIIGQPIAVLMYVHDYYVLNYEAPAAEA
Assay: In-vitro DGAT1 assay (14C oleoyl CoA, hDGAT1 microsomes from Sf9 cells)
Conditions: at 1 μM

| Compound | % Inhibition of hDGAT1 |
| --- | --- |
| CC(C)[C@@H](C(=O)O)N1Cc2ccc(-c3ccc(NC(=O)c4cnc5ccccc5c4)cc3)cc2C1=O [Example 651] | + (10-50% Inhibition) |
| O=C(Nc1ccc(-c2ccc3c(c2)C(=O)N(C2(C(=O)O)CC2)C3)cc1)c1ccc(-c2ccccc2)cc1 [Example 586, 1-(6-(4-([1,1′-Biphenyl]-4-ylcarboxamido)phenyl)-1-oxoisoindolin-2-yl)cyclopropanecarboxylic acid] | ++ (>50% Inhibition) |
| CC(C)[C@H](C(=O)O)N1Cc2ccc(-c3ccc(NC(=O)c4ccc(-c5ccccc5)cc4)cc3)cc2C1=O [Example 541, (R)-2-(6-(4-([1,1′-Biphenyl]-4-ylcarboxamido)phenyl)-1-oxoisoindolin-2-yl)-3-methylbutanoic acid] | ++ (>50% Inhibition) |
| 3-(1-Oxo-6-(4-(4-(trifluoromethyl)benzamido)phenyl)isoindolin-2-yl)cyclo hexanecarboxylic acid [Example 551] | ++ (>50% Inhibition) |
| O=C(Nc1ccc(-c2ccc3c(c2)C(=O)N([C@@H]2CCC[C@@H]2C(=O)O)C3)cc1)c1ccc(C(F)(F)F)cc1 [Example 598, (1S,2R)-2-(1-Oxo-6-(4-(4-(trifluoromethyl)benzamido)phenyl)isoindolin-2-yl)cyclopentanebcarboxylic acid] | ++ (>50% Inhibition) |

Same assay, conditions: read-out: % Inhibition of hDGAT1

| Compound | inhibition at 1 µM [%] |
| --- | --- |
| CC(C)[C@@H](C(=O)O)N1Cc2ccc(-c3ccc(NC(=O)Nc4ccc(C(F)(F)F)cc4)cc3)cc2C1=O [Example 36, (S)-3-Methyl-2-(1-oxo-6-(4-(3-(4-(trifluoromethyl)phenyl)ureido)phenyl)isoindolin-2-yl)butanoic acid] | > 50 |
| COc1cccc(NC(=S)Nc2ccc(-c3ccc4c(c3)C(=O)N([C@H](C(=O)O)C(C)C)C4)cc2)c1 [Example 60, (S)-2-(6-(4-(3-(3-Methoxyphenyl)thioureido)phenyl)-1-oxoisoindolin-2-yl)-3-methylbutanoic acid] | > 50 |
| CCCCCCCCCc1ccc(C(=O)Nc2ccc(-c3ccc4c(c3)C(=O)N([C@H](C(=O)O)C(C)C)C4)cc2)cc1 [Example 186, (S)-3-Methyl-2-(6-(4-(4-nonylbenzamido)phenyl)-1-oxoisoindolin-2-yl)butanoic acid] | > 50 |
| CCCCCc1ccc(C(=O)Nc2ccc(-c3ccc4c(c3)C(=O)N(C3(C(=O)O)CCCC3)C4)cc2)cc1 [Example 537, 1-(1-Oxo-6-(4-(4-pentylbenzamido)phenyl)isoindolin-2-yl)cyclopentane carboxylic acid] | > 50 |
| CC(C)[C@@H](C(=O)O)N1Cc2ccc(-c3ccc(NC(=O)Nc4ccc(C#N)cc4)cc3)cc2C1=O [Example 40, (S)-2-(6-(4-(3-(4-Cyanophenyl)ureido)phenyl)-1-oxoisoindolin-2-yl)-3-methyl butanoic acid] | > 50 |
| CC(C)[C@@H](C(=O)O)N1Cc2ccc(-c3ccc(NC(=O)Nc4ccc(F)cc4F)cc3)cc2C1=O [Example 10, (S)-2-(6-(4-(3-(2,4-Difluorophenyl)ureido)phenyl)-1-oxoisoindolin-2-yl)-3-methylbutanoic acid] | 10 to 50 |
| O=C(Nc1ccc(-c2ccc3c(c2)CN([C@H](C(=O)O)c2ccccc2)C3=O)cc1)Nc1cccc(C(F)(F)F)c1 [Example 373, (S)-2-(1-Oxo-5-(4-(3-(3-(trifluoromethyl)phenyl)ureido)phenyl)isoindolin-2-yl)-2-phenylacetic acid] | 10 to 50 |
| CC(C)[C@@H](C(=O)O)N1Cc2ccc(-c3ccc(NS(=O)(=O)c4ccc(C#N)cc4)cc3)cc2C1=O [Example 80, (S)-2-(6-(4-(4-Cyanophenylsulfonamido)phenyl)-1-oxoisoindolin-2-yl)-3-methyl butanoic acid] | 10 to 50 |
| CC(C)[C@@H](C(=O)O)N1Cc2ccc(-c3ccc(NC(=O)Nc4cc(Cl)ccc4Oc4ccccc4)cc3)cc2C1=O [Example 46, (S)-2-(6-(4-(3-(5-Chloro-2-phenoxyphenyl)ureido)phenyl)-1-oxoisoindolin-2-yl)-3-methylbutanoic acid] | > 50 |
| CC(C)[C@@H](C(=O)O)N1Cc2cc(-c3ccc(NC(=O)Nc4ccc(C#N)cc4)cc3)ccc2C1=O [Example 253, (S)-2-(5-(4-(3-(4-Cyanophenyl)ureido)phenyl)-1-oxoisoindolin-2-yl)-3-methylbutanoic acid] | > 50 |
| CC(C)[C@@H](C(=O)O)N1Cc2ccc(-c3ccc(NC(=O)c4ccc5ccccc5c4)cc3C(F)(F)F)cc2C1=O [Example 428, (S)-2-(6-(4-(2-Naphthamido)-2-(trifluoromethyl)phenyl)-1-oxoisoindolin-2-yl)-3-methylbutanoic acid] | 10 to 50 |
| CC(C)[C@@H](C(=O)O)N1Cc2cc(-c3ccc(NC(=O)Nc4ccccc4)cc3)ccc2C1=O [Example 231, (S)-3-Methyl-2-(1-oxo-5-(4-(3-phenylureido)phenyl)isoindolin-2-yl)butanoic acid] | 10 to 50 |
| CC(C)[C@@H](C(=O)O)N1Cc2ccc(-c3ccc(NC(=O)c4nnc(-c5ccccc5)s4)cc3)cc2C1=O [Example 627, (S)-3-Methyl-2-(1-oxo-6-(4-(5-phenyl-1,3,4-thiadiazole-2-carboxamido)phenyl)isoindolin-2-yl)butanoic acid] | > 50 |
| CC(C)[C@@H](C(=O)O)N1Cc2ccc(-c3ccc(NC(=O)Nc4ccc5c(c4)CCC5)cn3)cc2C1=O [Example 402, (S)-2-(6-(5-(3-(2,3-Dihydro-1H-inden-5-yl)ureido)pyridin-2-yl)-1-oxoisoindolin-2-yl)-3-methylbutanoic acid] | > 50 |
| O=C(Nc1ccc(-c2ccc3c(c2)C(=O)N(C2(C(=O)O)CC2)C3)cc1)c1ccc(Cl)cc1 [Example 588, 1-(6-(4-(4-Chlorobenzamido)phenyl)-1-oxoisoindolin-2-yl)cyclopropane carboxylic acid] | > 50 |
| CC(C)[C@@H](C(=O)O)N1Cc2ccc(-c3ccc(NC(=O)c4ncc(-c5ccccc5)o4)cc3)cc2C1=O [Example 614, (S)-3-Methyl-2-(1-oxo-6-(4-(5-phenyloxazole-2-carboxamido)phenyl)isoindolin-2-yl)butanoic acid] | > 50 |
| CC(C)[C@@H](C(=O)O)N1Cc2ccc(-c3ccc(NC(=O)Nc4cccc(C(F)(F)F)c4)cc3)cc2C1=O [Example 38, (S)-3-Methyl-2-(1-oxo-6-(4-(3-(3-(trifluoromethyl)phenyl)ureido)phenyl)isoindolin-2-yl)butanoic acid] | > 50 |
| CC(C)[C@@H](C(=O)O)N1Cc2cc(-c3ccc(NC(=O)Nc4cccc(C#N)c4)cc3)ccc2C1=O [Example 255, (S)-2-(5-(4-(3-(3-Cyanophenyl)ureido)phenyl)-1-oxoisoindolin-2-yl)-3-methylbutanoic acid] | > 50 |
| CC(C)[C@@H](C(=O)O)N1Cc2ccc(-c3ccc(NC(=O)Nc4c(F)cccc4F)cc3)cc2C1=O [Example 20, (S)-2-(6-(4-(3-(2,6-Difluorophenyl)ureido)phenyl)-1-oxoisoindolin-2-yl)-3-methylbutanoic acid] | 10 to 50 |
| O=C(Nc1ccc(-c2ccc3c(c2)C(=O)N(C2(C(=O)O)CCC2)C3)cc1)c1ccc(Cl)cc1 [Example 578, 1-(6-(4-(4-Chlorobenzamido)phenyl)-1-oxoisoindolin-2-yl)cyclobutane carboxylic acid] | > 50 |
| CC(C)[C@@H](C(=O)O)N1Cc2ccc(-c3ccc(NC(=O)c4ccc(N5CCOCC5)nc4)cc3)cc2C1=O [Example 213, (S)-3-Methyl-2-(6-(4-(6-morpholinonicotinamido)phenyl)-1-oxoisoindolin-2-yl)butanoic acid] | 10 to 50 |
| CC(C)[C@@H](C(=O)O)N1Cc2ccc(-c3ccc(NC(=O)c4c(F)cccc4F)cc3)cc2C1=O [Example 138, (S)-2-(6-(4-(2,6-Difluorobenzamido)phenyl)-1-oxoisoindolin-2-yl)-3-methyl butanoic acid] | 10 to 50 |
| CC(C)[C@@H](C(=O)O)N1Cc2ccc(-c3ccc(NC(=S)Nc4ccc(Cl)cc4)cc3)cc2C1=O [Example 62, (S)-2-(6-(4-(3-(4-Chlorophenyl)thioureido)phenyl)-1-oxoisoindolin-2-yl)-3-methyl butanoic acid] | 10 to 50 |
| CC(C)[C@@H](C(=O)O)N1Cc2cc(-c3ccc(NS(=O)(=O)c4ccc(F)c(F)c4)cc3)ccc2C1=O [Example 289, (S)-2-(5-(4-(3,4-Difluorophenylsulfonamido)phenyl)-1-oxoisoindolin-2-yl)-3-methylbutanoic acid] | 10 to 50 |
| COc1ccc(S(=O)(=O)Nc2ccc(-c3ccc4c(c3)CN([C@H](C(=O)O)C(C)C)C4=O)cc2)cc1 [Example 297, (S)-2-(5-(4-(4-Methoxyphenylsulfonamido)phenyl)-1-oxoisoindolin-2-yl)-3-methylbutanoic acid] | 10 to 50 |
| O=C(Nc1ccc(-c2ccc3c(c2)C(=O)N(C2(C(=O)O)CCCC2)C3)cc1)Nc1cccc(C(F)(F)F)c1 [Example 343, 1-(1-Oxo-6-(4-(3-(3-(trifluoromethyl)phenyl)ureido)phenyl)isoindolin-2-yl)cyclopentanecarboxylic acid] | 10 to 50 |
| COc1cccc(NC(=O)Nc2ccc(-c3ccc4c(c3)C(=O)N([C@H](C(=O)O)C(C)C)C4)cc2)c1 [Example 26, (S)-2-(6-(4-(3-(3-Methoxyphenyl)ureido)phenyl)-1-oxoisoindolin-2-yl)-3-methyl butanoic acid] | 10 to 50 |

— patent US8748426B2, “Inhibitors of diacylglycerol acyl transferase” (Piramal Enterprises Limited, priority 2009, dated 2014)
